Results: patent US4727080A, “1-substituted derivatives of 6-fluoro-7-(pyrrol-1-yl)-1,4-dihydro-4-oxoquinoline-3-carboxylic acid, their preparation and their application as drugs” (Provesan S.A., priority 1984, dated 1988)
Values after ≈ are worked out from the molar mass of the structure shown.

Assays:
Gram-positive cocci = assay: "In vitro" antimicrobial activity compared with nalidixic acid, Gram-positive cocci; assay type: cell-based
Protocol: (§1) Antimicrobial pharmacological activity (G. L. Daquet and Y. A. Chabbect, Techniques en bacteriologie (Techniques in bacteriology), vol. 3, Flammarion Medecine-Sciences, Paris, 1972, and W. B. Hugo and A. D. Rusell, Pharmaceutical Microbiology, Blackwell Scientific Publications, London (1977).
(§2) A streak culture of each of the microorganisms is formed in tubes of antibiotics agar no. 1 and incubated for 20 hours at 37° C. A culture loop is then taken and a culture is formed in a tryptone-soya broth and incubated for 20 hours at 37° C. The resulting culture is diluted to 1/4 with Ringer's physiological solution to give a standardized suspension of 10^5 ufc/ml for each organism.
(§3) Starting from a solution of 1000 μg/ml in 0.1N NaOH, each product is diluted successively in dextrose agar (melted beforehand and kept at 50° C.) to give the following concentrations: 64-32-16-8-4-2-1-0.5-0.25-0.125 μg of derivative/ml of medium.
(§4) After this, each concentration of each product is divided up into Petri dishes of 10 cm diameter at a rate of 10 ml of medium per dish and using as many dishes as there are microorganisms to be tested.
(§5) Once the medium has cooled, the dishes are treated with the inoculations at a rate of 0.4 ml of inoculation per dish. They are spread out with a Drigalski loop and the supernatant is collected. The inoculated dishes are incubated at 37° C. for 20 hours.

[1] = test system: Salmonella typhimurium AMES 98; assay: "In vitro" MIC, Salmonella typhimurium AMES 98; assay type: cell-based; conditions: Salmonella enterica; Salmonella typhimurium AMES 98; dextrose agar, 37° C., 20 hours; read-out: "In vitro" MIC
Protocol: as §1
Salmonella typhimurium AMES 98
as §2, §3, §4, §5

[2] = test system: Klebsiella pneumoniae ATCC 10031; assay: "In vitro" MIC, Klebsiella pneumoniae; assay type: cell-based; conditions: ATCC10031; Klebsiella pneumoniae ATCC 10031; dextrose agar, 37° C., 20 hours; read-out: "In vitro" MIC
Protocol: as §1
Klebsiella pneumoniae ATCC 10031
as §2, §3, §4, §5

Shigella flexnerii = assay: "In vitro" MIC, Shigella flexnerii; assay type: cell-based; conditions: 20 h, read-out: "In vitro" MIC
Protocol: as §1, §2, §3, §4, §5

Escherichia coli R-1513 = assay: "In vitro" MIC, Escherichia coli R-1513; assay type: cell-based; conditions: R1513; Escherichia coli R-1513; dextrose agar, 37° C., 20 hours; read-out: "In vitro" MIC
Protocol: as §1, §2, §3, §4, §5

[3] = test system: Enterobacteriaceae (Pseudomonas aeruginosa); assay: "In vitro" antimicrobial activity compared with nalidixic acid, Enterobacteriaceae (Pseudomonas aeruginosa); assay type: cell-based
Protocol: as §1, §2, §3, §4, §5

Proteus morganii CHSP-16 = assay: "In vitro" MIC, Proteus morganii; assay type: cell-based; conditions: Morganella morganii, CHSP16; Proteus morganii CHSP-16; dextrose agar, 37° C., 20 hours; read-out: "In vitro" MIC
Protocol: as §1, §2, §3, §4, §5

[4] = test system: Staphylococcus aureus ATCC 5488/23; assay: "In vitro" MIC, Staphylococcus aureus ATCC 5488/23; assay type: cell-based; conditions: ATCC5488; Staphylococcus aureus ATCC 5488/23; dextrose agar, 37° C., 20 hours; read-out: "In vitro" MIC
Protocol: as §1
Staphylococcus aureus ATCC 5488/23
as §2, §3, §4, §5

Sarcina lutea ATCC 9341 = assay: "In vitro" MIC, Sarcina lutea; assay type: cell-based; conditions: Micrococcus luteus, ATCC9341; Sarcina lutea ATCC 9341; dextrose agar, 37° C., 20 hours; read-out: "In vitro" MIC
Protocol: as §1, §2, §3, §4, §5

[5] = test system: Micrococcus flavus ATCC 10240; assay: "In vitro" MIC, Micrococcus flavus; assay type: cell-based; conditions: ATCC10240; Micrococcus flavus ATCC 10240; dextrose agar, 37° C., 20 hours; read-out: "In vitro" MIC
Protocol: as §1
Micrococcus flavus ATTC 10240
as §2, §3, §4, §5

[6] = test system: Pseudomonas aeruginosa ADSA 47; assay: "In vitro" MIC, Pseudomonas aeruginosa ADSA 47; assay type: cell-based; conditions: ADSA47; Pseudomonas aeruginosa ADSA 47; dextrose agar, 37° C., 20 hours; read-out: "In vitro" MIC
Protocol: as §1
Pseudomonas aeruginosa ADSA 47
as §2, §3, §4, §5

Acute toxicity to mice = conditions: mouse, in vivo, ip, suspension in 5% gum arabic, mortality over 7 days
Protocol: The experimental animals used to determine this toxicity were albino mice of the C.F.L.P. strain and of both sexes, weighing between 19 and 25 grams. After an 18-hour fasting period with water "ad libitum", the derivatives forming the subject of the present invention are administered intraperitoneally as a suspension in 5% gum arabic. The volume of suspension administered was 0.4 ml/20 grams (20 ml/kg) in all cases, the concentration of the suspension being changed according to the dose administered.
One hour after administration of the derivatives, the animals are given a standard Panlab rat-mouse food. The mortality was observed over a period of 7 days. Differences in mortality between the sexes were not observed with any of the products.

[7] = test system: Pseudomonas aeruginosa 25115; assay: "In vitro" MIC, Pseudomonas aeruginosa 25115; assay type: cell-based; conditions: Pseudomonas aeruginosa 25115; dextrose agar, 37° C., 20 hours; read-out: "In vitro" MIC
Protocol: as §1
Pseudomonas aeruginosa 25115
as §2, §3, §4, §5

[8] = test system: Bacillus subtilis ATCC 6633; assay: "In vitro" MIC, Bacillus subtilis; assay type: cell-based; conditions: ATCC6633; Bacillus subtilis ATCC 6633; dextrose agar, 37° C., 20 hours; read-out: "In vitro" MIC
Protocol: as §1
Bacillus subtilis ATCC 6633
as §2, §3, §4, §5

[9] = test system: Citrobacter freundii ATCC 11606; assay: "In vitro" MIC, Citrobacter freundii; assay type: cell-based; conditions: ATCC11606; Citrobacter freundii ATCC 11606; dextrose agar, 37° C., 20 hours; read-out: "In vitro" MIC
Protocol: as §1
Citrobacter freundii ATCC 11606
as §2, §3, §4, §5

[10] = test system: Escherichia coli ATCC 10536; assay: "In vitro" MIC, Escherichia coli ATCC 10536; assay type: cell-based; conditions: ATCC10536; Escherichia coli ATCC 10536; dextrose agar, 37° C., 20 hours; read-out: "In vitro" MIC
Protocol: as §1
Escherichia coli ATCC 10536
as §2, §3, §4, §5

[11] = test system: Staphylococcus aureus ATCC 25178; assay: "In vitro" MIC, Staphylococcus aureus ATCC 25178; assay type: cell-based; conditions: ATCC25178; Staphylococcus aureus ATCC 25178; dextrose agar, 37° C., 20 hours; read-out: "In vitro" MIC
Protocol: as §1
Staphylococcus aureus ATCC 25178
as §2, §3, §4, §5

[12] = test system: Serratia marcescens ATTC 13880; assay: "In vitro" MIC, Serratia marcescens; assay type: cell-based; conditions: ATTC13880; Serratia marcescens ATTC 13880; dextrose agar, 37° C., 20 hours; read-out: "In vitro" MIC
Protocol: as §1
Serratia marcescens ATTC 13880
as §2, §3, §4, §5

[13] = test system: Enterobacter aerogenes ATCC 15038; assay: "In vitro" MIC, Enterobacter aerogenes; assay type: cell-based; conditions: Klebsiella aerogenes, ATCC15038; Enterobacter aerogenes ATCC 15038; dextrose agar, 37° C., 20 hours; read-out: "In vitro" MIC
Protocol: as §1
Enterobacter aerogenes ATCC 15038
as §2, §3, §4, §5

[14] = test system: Enterobacter cloacae CHSP-20; assay: "In vitro" MIC, Enterobacter cloacae; assay type: cell-based; conditions: CHSP20; Enterobacter cloacae CHSP-20; dextrose agar, 37° C., 20 hours; read-out: "In vitro" MIC
Protocol: as §1
Enterobacter cloacae CHSP-20
as §2, §3, §4, §5

[15] = test system: Streptococcus faecalis ATCC 10541; assay: "In vitro" MIC, Streptococcus faecalis; assay type: cell-based; conditions: Enterococcus faecalis, ATCC10541; Streptococcus faecalis ATCC 10541; dextrose agar, 37° C., 20 hours; read-out: "In vitro" MIC
Protocol: as §1
Streptococcus faecalis ATCC 10541
as §2, §3, §4, §5

[16] = test system: Salmonella typhimurium AMES 100; assay: "In vitro" MIC, Salmonella typhimurium AMES 100; assay type: cell-based; conditions: Salmonella enterica; Salmonella typhimurium AMES 100; dextrose agar, 37° C., 20 hours; read-out: "In vitro" MIC
Protocol: as §1
Salmonella typhimurium AMES 100
as §2, §3, §4, §5

[17] = test system: Proteus mirabilis ATCC 4675; assay: "In vitro" MIC, Proteus mirabilis; assay type: cell-based; conditions: ATCC4675; Proteus mirabilis ATCC 4675; dextrose agar, 37° C., 20 hours; read-out: "In vitro" MIC
Protocol: as §1
Proteus mirabilis ATCC 4675
as §2, §3, §4, §5

O=C(O)c1cn(CCF)c2cc(-n3cccc3)c(F)cc2c1=O [Example 6, 6-fluoro-7-(pyrrol-1-yl)-1-fluoroethyl-4-oxo-1,4-dihydroquinoline-3-carboxylate acid]
"in vitro" activity compared with nalidixic acid (Gram-positive cocci): greater "in vitro" activity than nalidixic acid
MIC [1]: ≤ 0.031 µg/mL
MIC [2]: 0.062 µg/mL (≈ 0.195 µM)
MIC (Shigella flexnerii): 1 µg/mL (≈ 3.14 µM)
MIC (Escherichia coli R-1513): 0.5 µg/mL (≈ 1.57 µM)
"in vitro" activity compared with nalidixic acid [3]: greater "in vitro" activity than nalidixic acid
MIC (Proteus morganii CHSP-16): 0.5 µg/mL (≈ 1.57 µM)
MIC [4]: 0.062 µg/mL (≈ 0.195 µM)
MIC (Sarcina lutea ATCC 9341): 2 µg/mL (≈ 6.28 µM)
MIC [5]: 1 µg/mL (≈ 3.14 µM)
MIC [6]: 16 µg/mL (≈ 50.3 µM)
LD50 at 168 h (Acute toxicity to mice): > 1600 mg/kg
MIC [7]: 4 µg/mL (≈ 12.6 µM)
MIC [8]: ≤ 0.031 µg/mL
MIC [9]: 1 µg/mL (≈ 3.14 µM)
MIC [10]: ≤ 0.031 µg/mL
MIC [11]: 0.062 µg/mL (≈ 0.195 µM)
MIC [12]: 1 µg/mL (≈ 3.14 µM)
MIC [13]: 1 µg/mL (≈ 3.14 µM)
MIC [14]: 0.5 µg/mL (≈ 1.57 µM)
MIC [15]: 0.5 µg/mL (≈ 1.57 µM)
MIC [16]: 0.25 µg/mL (≈ 0.785 µM)
MIC [17]: 1 µg/mL (≈ 3.14 µM)
